This note sets out measurements from US11840543B2, “Compounds and uses” (The University of Queensland, priority 2017, dated 2023).

Where only a bound is given, the exact number is not on record here.

In the first assay the target is T1, NLRP3 (Mus musculus, UniProt Q8R4B8).
T1 construct: Macrophages from C57BL/6 mice were differentiated from bone marrow; endogenous in cells; host or cells: primary bone marrow-derived macrophages (BMDM) from C57BL/6 mice
T1 sequence (Q8R4B8 whole entry): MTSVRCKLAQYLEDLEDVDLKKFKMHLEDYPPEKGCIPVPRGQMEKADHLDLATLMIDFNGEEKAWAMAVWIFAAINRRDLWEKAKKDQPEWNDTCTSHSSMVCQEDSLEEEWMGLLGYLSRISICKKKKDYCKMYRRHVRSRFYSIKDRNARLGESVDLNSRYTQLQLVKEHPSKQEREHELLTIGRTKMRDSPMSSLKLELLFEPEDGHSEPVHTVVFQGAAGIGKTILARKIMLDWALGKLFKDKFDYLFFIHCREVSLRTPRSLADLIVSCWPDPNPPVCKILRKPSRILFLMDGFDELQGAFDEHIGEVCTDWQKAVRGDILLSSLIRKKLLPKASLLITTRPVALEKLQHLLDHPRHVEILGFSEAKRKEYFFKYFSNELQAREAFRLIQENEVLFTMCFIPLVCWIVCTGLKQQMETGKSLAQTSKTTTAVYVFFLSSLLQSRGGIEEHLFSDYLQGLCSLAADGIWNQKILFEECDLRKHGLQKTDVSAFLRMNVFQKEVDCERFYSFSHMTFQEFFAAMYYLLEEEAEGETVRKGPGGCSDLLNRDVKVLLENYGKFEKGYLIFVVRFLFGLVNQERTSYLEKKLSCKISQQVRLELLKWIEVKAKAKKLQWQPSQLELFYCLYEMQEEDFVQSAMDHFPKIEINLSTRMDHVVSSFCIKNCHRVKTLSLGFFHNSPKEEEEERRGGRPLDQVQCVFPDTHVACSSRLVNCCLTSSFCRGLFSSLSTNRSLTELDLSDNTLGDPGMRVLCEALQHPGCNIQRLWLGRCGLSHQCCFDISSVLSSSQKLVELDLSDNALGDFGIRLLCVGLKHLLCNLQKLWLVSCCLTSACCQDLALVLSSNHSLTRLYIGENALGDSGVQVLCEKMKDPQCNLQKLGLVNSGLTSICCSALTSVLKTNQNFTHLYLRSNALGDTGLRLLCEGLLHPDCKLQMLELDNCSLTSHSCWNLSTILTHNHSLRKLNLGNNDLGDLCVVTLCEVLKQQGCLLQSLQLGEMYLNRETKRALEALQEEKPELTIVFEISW
The assay is described as follows: NLRP3 inflammasome assay: IL-1β secretion from LPS-primed, ATP-stimulated murine BMDM (Table 1). Type of assay: cell-based, murine (C57BL/6 mice). The following applies: ATP 2.5 mM 1 h, ELISA, read-out: IC50 (NLRP3 inhibitory activity). As for the experimental part:
The NLRP3-inhibitory effect of a number of the above compounds was tested by measuring the IL-1β secretion from murine bone marrow derived macrophages (BMDM) primed with lipopolysaccharide (LPS), treated with test compound (to a maximum concentration of 200 μM) and finally stimulated with the NLRP3 stimulus ATP. The half-maximal inhibitory concentration (IC50) was determined for each compound and compared to a number of comparative examples (CE 1-10) including commercially available oral sulphonylureas (CE1-6) and the known NLRP3 inhibitor MCC 950 (CE7). The experimental protocol was as follows.
The University of Queensland Animal Ethics Committee approved all experimental protocols involving mice.
NLRP3 INFLAMMASOME ASSAY: BMDM were seeded at 1×10^6 cells/mL in 96 well plates. The following day the overnight medium was replaced with Opti-MEM® reduced serum medium (Life Technologies) and cells were stimulated with 100 ng/mL ultrapure E. coli K12 LPS (Invivogen) for 3 h. Compounds were prepared from a 10 mM stock by serial dilution in 80% DMSO/20% 10 mM ammonium bicarbonate. […] IL-1β levels in cell-free supernatants were analysed by ELISA (ReadySetGo!® eBioscience).
For orientation: In an ELISA, binding on a coated surface is turned into a signal by an enzyme label.
For orientation: IC50 means the concentration that inhibits the measured activity by half. With `CC(=O)c1ccc(S(=O)(=O)NC(=O)NC2CCCCC2)cc1` [CE1, Acetohexamide], the half-inhibitory concentration (IC50) is greater than 200000 nM.
The same measure, in the same setting: the same measure for `Cc1cnc(C(=O)NCCc2ccc(S(=O)(=O)NC(=O)NC3CCCCC3)cc2)cn1` [CE3, Glipizide]: greater than 200000 nM; for `Cc1cc(C(=O)NCCc2ccc(S(=O)(=O)NC(=O)NN3CCCCCC3)cc2)no1` [CE4, Glisoxepide]: greater than 50000 nM.
On the same count and under the same terms, to `COc1ccc2c(c1)C(=O)N(CCc1ccc(S(=O)(=O)NC(=O)NC3CCCCC3)cc1)C(=O)C2(C)C` [CE5, Gliquidone] belongs greater than 50000 nM; to `CCC1=C(C)CN(C(=O)NCCc2ccc(S(=O)(=O)NC(=O)N[C@H]3CC[C@H](C)CC3)cc2)C1=O` [CE6, Glimepiride], greater than 50000 nM.
As for `Nc1ccc(S(=O)(=O)NC(=O)Nc2c3c(cc4c2CCC4)CCC3)cc1` [CE8], the IC50 is less than 1000 nM.
The same measure, in the same setting: to `O=C(Nc1c2c(cc3c1CCC3)CCC2)NS(=O)(=O)c1ccc2c(c1)CCC2` [CE9] belongs less than 1000 nM; to `O=C(Nc1c2c(cc3c1CCC3)CCC2)NS(=O)(=O)c1ccc([N+](=O)[O-])cc1` [CE10], less than 1000 nM.
Still for that read-out and setting: the same measure for `CC(=O)c1ccc(S(=O)(=O)NC(=O)Nc2c3c(cc4c2CCC4)CCC3)cc1` [Example 1, 4-Acetyl-N-((1,2,3,5,6,7-hexahydro-s-indacen-4-yl)carbamoyl) benzenesulfonamide]: less than 1000 nM; for `Cc1cnc(C(=O)NCCc2ccc(S(=O)(=O)NC(=O)Nc3c4c(cc5c3CCC5)CCC4)cc2)cn1` [Example 3, N-(4-(N-((1,2,3,5,6,7-Hexahydro-s-indacen-4-yl)carbamoyl)sulfamoyl)phenethyl)-5-methylpyrazine-2-carboxamide]: less than 1000 nM.

For the next assay, the target named is T2, NLRP3 (Homo sapiens, UniProt Q96P20).
T2 construct: To generate HMDM, human monocytes are isolated from buffy coat blood; endogenous in cells; host or cells: human monocyte-derived macrophages (HMDM) from CD14+ buffy coat monocytes
T2 sequence (Q96P20 whole entry): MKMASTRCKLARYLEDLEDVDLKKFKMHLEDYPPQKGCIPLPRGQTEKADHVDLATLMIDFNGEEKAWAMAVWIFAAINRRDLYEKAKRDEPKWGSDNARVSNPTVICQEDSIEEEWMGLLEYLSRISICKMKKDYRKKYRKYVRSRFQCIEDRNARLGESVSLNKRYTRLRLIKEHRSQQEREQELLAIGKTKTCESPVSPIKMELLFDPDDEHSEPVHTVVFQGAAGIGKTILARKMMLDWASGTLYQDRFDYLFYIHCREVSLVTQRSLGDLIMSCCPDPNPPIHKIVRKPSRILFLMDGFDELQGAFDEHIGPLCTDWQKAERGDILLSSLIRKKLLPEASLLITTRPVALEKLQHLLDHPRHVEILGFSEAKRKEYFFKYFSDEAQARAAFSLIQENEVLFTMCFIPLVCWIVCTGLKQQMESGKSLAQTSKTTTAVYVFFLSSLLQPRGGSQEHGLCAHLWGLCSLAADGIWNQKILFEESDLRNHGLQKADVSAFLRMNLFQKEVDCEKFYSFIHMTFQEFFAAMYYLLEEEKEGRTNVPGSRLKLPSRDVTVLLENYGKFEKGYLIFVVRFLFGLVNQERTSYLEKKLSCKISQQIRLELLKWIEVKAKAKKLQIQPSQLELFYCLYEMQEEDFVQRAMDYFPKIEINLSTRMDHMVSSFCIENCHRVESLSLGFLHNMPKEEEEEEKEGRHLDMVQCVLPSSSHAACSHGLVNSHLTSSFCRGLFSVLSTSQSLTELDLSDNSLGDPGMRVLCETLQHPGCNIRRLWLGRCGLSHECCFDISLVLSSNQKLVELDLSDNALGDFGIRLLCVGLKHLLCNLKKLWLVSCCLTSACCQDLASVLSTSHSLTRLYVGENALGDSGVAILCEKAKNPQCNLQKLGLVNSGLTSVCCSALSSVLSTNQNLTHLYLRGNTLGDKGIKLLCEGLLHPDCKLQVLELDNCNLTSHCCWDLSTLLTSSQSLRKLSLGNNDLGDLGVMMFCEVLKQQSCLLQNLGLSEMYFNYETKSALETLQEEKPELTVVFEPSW
The assay is described as follows: HMDM NLRP3 inflammasome assay, IL-1β secretion (Table 2). The class given is cell-based. The conditions noted are these: human monocyte derived macrophages.
Procedure: HMDM CELL CULTURE: To generate HMDM, human monocytes are isolated from buffy coat blood using Ficoll-Plaque Plus (GE Healthcare) and density centrifugation. CD14^+ cell selection is performed using MACS magnetic beads (Miltenyl Biotec). […] 91, p.
Medium is removed and replaced with serum free medium (SFM) containing test compound 30 min prior to NLRP3 stimulation. […] ATP can be sourced from Sigma Aldrich, nigericin and MSU from Invivogen and LeuLeu-Ome from Chem-Impex International.
MEASUREMENT OF IL-1β SECRETION: For ELISA assays cells are seeded in 96 well plates. Supernatants are removed and analysed using ELISA kits according to the manufacturer's instructions (DuoSet® R&D Systems, ReadySetGo!® eBioscience, BD OptEIA™, or Perkin Elmer AlphaLISA®).
`O=C(Nc1c2c(cc3c1CCC3)CCC2)NS(=O)(=O)c1cccc(C(=O)O)c1` [Example 10, 3-(N-((1,2,3,5,6,7-Hexahydro-s-indacen-4-yl)carbamoyl)sulfamoyl)-benzoic acid] returned an IC50 of less than 1000 nM.
On the same count and under the same terms, the same measure for `C#CCNC(=O)CCc1ccc(S(=O)(=O)NC(=O)Nc2c3c(cc4c2CCC4)CCC3)cc1` [Example 13, 3-(4-(N-((1,2,3,5,6,7-Hexahydro-s-indacen-4-yl)carbamoyl)sulfamoyl)-phenyl)-N-(prop-2-yn-1-yl)propanamide]: less than 1000 nM.

Another assay relates to MIN6 cells. The assay is described as follows: MIN6 insulin assay (insulin secretion, radioimmunoassay). Type of assay: cell-based. The conditions noted are these: 10 μM test compound, 2.8 mM glucose KRB, 1 h; FIG. 1. How it is done:
To confirm the insulinotropic properties of the compounds of the invention, their ability to stimulate insulin secretion from MIN6 cells at a single concentration (10 μM) was tested using the following protocol. The tests were conducted by the Garvan Institute of Medical Research, Sydney, Australia.
MIN6 INSULIN ASSAY PROTOCOL: MIN6 cells (passage 29-37) were incubated for 1 h in Krebs-Ringer buffer (KRB) containing 2.8 mM glucose. The cells were then stimulated for 1 h in either 2.8 mM glucose KRB, 20 mM glucose KRB, or 2.8 mM glucose KRB plus test compound. Supernatants were collected and then assayed using rat insulin radioimmunoassay kit (RI-13K, Merck Millipore).
Regarding `CC(C)(O)c1coc(S(=O)(=O)NC(=O)Nc2c3c(cc4c2CCC4)CCC3)c1` [CE7, MCC 950], the “insulin secretion from MIN6 cells” value is “basal levels of insulin secretion”.
